Measured values as given in US3956291A, “7-Thioacetamido cephalosporanic acid derivatives” (American Home Products Corporation, priority 1974, dated 1976).
In brackets after ≈: the same amount, converted by molar mass. Read-outs that look alike come from different tables or passages of the source.

Experiments:
Assay in all cases: agar serial dilution test, minimum inhibitory concentration
Type in all cases: cell-based
escherichia coli = tested on: escherichia coli
Text: (§1) The compounds of this invention are useful for the treatment of bacterial infections amenable to treatment by cephalosporins. […] In accordance with the results obtained with the antibacterial compounds of this invention, their usefulness is established in the fields of comparative pharmacology and microbiology for the purpose of inhibiting the growth of undesirable bacterial colonies. […]

neisseria catarrhalis = tested on: neisseria catarrhalis
Text: as §1

klebsiella pneumoniae = tested on: klebsiella pneumoniae
Text: as §1

bacillus subtilis = details: Bacillus subtilis; BA SU strain 6633
Text: as §1

Staphylococcus aureus = details: Staphylococcus aureus
Text: as §1

proteus vulgaris = details: PR VU strain 6896, read-out: Minimum Inhibitory Concentration
Text: as §1

bordetella brochiseptica = details: BO BR strain 4617
Text: as §1

salmonella paratyphi = details: Salmonella enterica, read-out: Minimum Inhibitory Concentration
Text: as §1

herellea species = details: HE SP strain 9955
Text: (§2) The compounds of this invention are useful for the treatment of bacterial infections amenable to treatment by cephalosporins. […] In accordance with the results obtained with the antibacterial compounds of this invention, their usefulness is established in the fields of comparative pharmacology and microbiology for the purpose of inhibiting the growth of undesirable bacterial colonies.
(§3) The nmr spectra described in the following examples pertains to the spectra obtained upon exchanging acidic hydrogens with deuterium and are described in ppm (δ). The small amount of water and/or solvent carried into the products is readily removed by gently heating the material under vacuum. […]

pseudomones aeruginosa = details: PS AE strain 10145
Text: as §2, §3

enterobacter aerogenes = details: Klebsiella aerogenes; EN AE strain 13048
Text: as §2, §3

escherichia intermedia = details: Citrobacter intermedius; ES IN strain 65-1
Text: as §2, §3

[1] = read-out: Minimum Inhibitory Concentration
[2] = NE CA strain 8193, read-out: Minimum Inhibitory Concentration
[3] = KL PN strain 10031, read-out: Minimum Inhibitory Concentration

SMILES	MIC (escherichia coli; ES CO strain 920) [µg/mL]	MIC (escherichia coli; ES CO strain 9637) [µg/mL]	MIC (neisseria catarrhalis; [1]) [µg/mL]	MIC (klebsiella pneumoniae; [1]) [µg/mL]	MIC (bacillus subtilis) [µg/mL]	MIC (Staphylococcus aureus; ST AU strain 53-180) [µg/mL]	MIC (Staphylococcus aureus; ST AU strain 6538P) [µg/mL]	MIC (Staphylococcus aureus; ST AU strain CHP) [µg/mL]	MIC (Staphylococcus aureus; ST AU strain Smith) [µg/mL]	MIC (proteus vulgaris) [µg/mL]	MIC (bordetella brochiseptica) [µg/mL]	MIC (salmonella paratyphi) [µg/mL]	MIC (herellea species) [µg/mL]	MIC (neisseria catarrhalis; [2]) [µg/mL]	MIC (klebsiella pneumoniae; [3]) [µg/mL]	MIC (pseudomones aeruginosa) [µg/mL]	MIC (enterobacter aerogenes) [µg/mL]	MIC (escherichia intermedia) [µg/mL]	MIC (Staphylococcus aureus; ST AU (ditto mark) strain 9637 (so in the source)) [µg/mL]
CC(=O)OCC1=C(C(=O)O)N2C(=O)[C@@H](NC(=O)CSC(SCC#N)=C(C#N)C#N)[C@H]2SC1 [Example 2, 7-(2-[2,2-Dicyano-1-(cyanomethylthio)ethenylthio]acetamido)cephalosporanic acid]	250 (≈ 507 µM)	31.3 (≈ 63.4 µM)	15.6 (≈ 31.6 µM)	15.6 (≈ 31.6 µM)	0.061 (≈ 0.124 µM)	1.95 (≈ 3.95 µM)	0.488 (≈ 0.989 µM)	1.95 (≈ 3.95 µM)	0.488 (≈ 0.989 µM)	31.3 (≈ 63.4 µM)	62.5 (≈ 127 µM)	15.6 (≈ 31.6 µM)	250 (≈ 507 µM)	–	–	–	–	–	–
CC(=O)OCC1=C(C(=O)O)N2C(=O)[C@@H](NC(=O)CSC(=NS(C)(=O)=O)SCC#N)[C@H]2SC1 [Example 14, 7-[2-[(cyanomethylthio)(methylsulfonylimino)methylthio]acetamido)cephalosporanic acid]	125 (≈ 239 µM)	125 (≈ 239 µM)	–	–	0.244 (≈ 0.467 µM)	7.81 (≈ 14.9 µM)	1.95 (≈ 3.73 µM)	7.81 (≈ 14.9 µM)	1.95 (≈ 3.73 µM)	31.3 (≈ 59.9 µM)	62.5 (≈ 120 µM)	15.6 (≈ 29.9 µM)	250 (≈ 478 µM)	125 (≈ 239 µM)	31.3 (≈ 59.9 µM)	125 (≈ 239 µM)	–	–	–
CC(=O)OCC1=C(C(=O)O)N2C(=O)[C@@H](NC(=O)CSC(=NC#N)SCC#N)[C@H]2SC1 [Example 7, 7-[2-[(cyanoimino) (cyanomethylthio)methylthio]acetamido]cephalosporanic acid]	–	31.3 (≈ 66.7 µM)	–	–	0.061 (≈ 0.13 µM)	0.976 (≈ 2.08 µM)	0.488 (≈ 1.04 µM)	195 (≈ 415 µM)	0.488 (≈ 1.04 µM)	31.3 (≈ 66.7 µM)	15.6 (≈ 33.2 µM)	–	31.3 (≈ 66.7 µM)	31.3 (≈ 66.7 µM)	–	–	7.81 (≈ 16.6 µM)	62.5 (≈ 133 µM)	–
CC(=O)OCC1=C(C(=O)O)N2C(=O)[C@@H](NC(=O)CSC(=C[N+](=O)[O-])SCC#N)[C@H]2SC1 [Example 6, 7-[2-(1-Cyanomethylthio-2-nitroethenylthio)acetamido]cephalosporanic acid]	125 (≈ 256 µM)	62.5 (≈ 128 µM)	–	–	0.122 (≈ 0.25 µM)	3.9 (≈ 7.98 µM)	0.976 (≈ 2 µM)	3.9 (≈ 7.98 µM)	0.976 (≈ 2 µM)	31.3 (≈ 64.1 µM)	125 (≈ 256 µM)	7.81 (≈ 16 µM)	125 (≈ 256 µM)	62.5 (≈ 128 µM)	62.5 (≈ 128 µM)	250 (≈ 512 µM)	–	250 (≈ 512 µM)	–
CSC(=NC#N)SCC(=O)N[C@@H]1C(=O)N2C(C(=O)O)=C(COC(C)=O)CS[C@H]12 [Example 5]	250 (≈ 562 µM)	–	–	–	0.976 (≈ 2.2 µM)	3.9 (≈ 8.77 µM)	1.95 (≈ 4.39 µM)	7.81 (≈ 17.6 µM)	0.976 (≈ 2.2 µM)	62.5 (≈ 141 µM)	125 (≈ 281 µM)	31.3 (≈ 70.4 µM)	–	250 (≈ 562 µM)	125 (≈ 281 µM)	–	–	–	125 (≈ 281 µM)
